We go through one compound from US11034726B2, “Gene expression inhibitors” (PIVARIS BIOSCIENCE GMBH, priority 2017, dated 2021).

Peptide text beside a SMILES is read from it. Bounds are passed on as bounds.

The test system of assay [1] is baculovirus encoding luciferase under control of the CMV promoter. The experiment in a line: Baculovirus-mediated luciferase gene expression in HEK293 cells. The class given is cell-based. As to the method: A baculovirus was generated with the luciferase coding region under control of the CMV promoter integrated in its viral genome. The baculovirus was applied to HEK293 cells pretreated for 10 minutes with DMSO or increasing concentrations of peptide I24, TAT and the fusion peptide TAT-I24. Luciferase expression is reduced in cells treated with cell-permeable fusion peptide TAT-I24 in a dose-dependent manner (FIG. 7a). Baculovirus-infected cells incubated with DMSO, TAT-I24 or TAT were stimulated with TNF-α and total RNA isolated from cells. After treatment of the RNA with DNAse I, reverse transcription was performed. Luciferase and IL-8 mRNA were analysed by real-time PCR.

For another assay, the system named is herpes simplex virus. The experiment in a line: Herpes simplex virus plaque-formation assay. The class given is cell-based. An excerpt: Cells were infected with herpes simplex virus and replication of virus determined by a plaque-formation assay (see examples above). Replication of herpes simplex virus was inhibited by TAT-I24 in a dose-dependent manner.
The test system of assay [2] is lentivirus containing luciferase under control of the CMV promoter. Description: Lentivirus luciferase gene expression in HEK293 cells. The assay is classed as cell-based. To be noted: 20 μM, 48 hrs. As to the method: HEK293 cells were incubated with peptide I24, TAT-tagged peptide I24 (TAT-I24), or TAT followed by addition of lentivirus containing luciferase under control of the CMV promoter for 48 hrs.

The next assay has as its system vaccinia virus. The class given is cell-based.
The subject of assay [3] is plasmid-encoded luciferase in HEK293 cells. The experiment in a line: Transient transfection of luciferase expression plasmid (CMV promoter) with peptide, luciferase in cell lysates.
Assay [4] has as its system adenovirus encoding luciferase and GFP. Description: Adenovirus gene expression and replication in HEK293 cells. The assay is classed as cell-based. As to the method: HEK293 cells were treated with increasing concentrations of the peptides I24, TAT-I24 or TAT alone and incubated with adenovirus encoding luciferase and green fluorescence protein (GFP) under control of the CMV promoter. […] HEK293 cells were treated with vehicle control, the peptide I24, TAT-I24 or TAT alone (20 μM) and adenovirus particles encoding luciferase and GFP. After 72 hrs, RNA was isolated and luciferase and GFP as well as adenovirus hexon transcript levels analysed by real-time PCR and normalized to GAPDH. […] DNA was isolated from supernatants and adenovirus hexon DNA quantified using real-time PCR (FIG. 8c).

[5] abbreviates: TNF-α stimulated, real-time PCR.

Usually IC50 stands for the concentration at which inhibition is half-maximal. Regarding `CC(C)C[C@H](NC(=O)[C@H](CS)NC(=O)[C@H](CCC(N)=O)NC(=O)[C@@H]1CCCN1C(=O)[C@@H]1CCCN1C(=O)[C@H](CCCNC(=N)N)NC(=O)[C@H](CCCNC(=N)N)NC(=O)[C@H](CCCNC(=N)N)NC(=O)[C@H](CCC(N)=O)NC(=O)[C@H](CCCNC(=N)N)NC(=O)[C@H](CCCNC(=N)N)NC(=O)[C@H](CCCCN)NC(=O)[C@H](CCCCN)NC(=O)[C@H](CCCNC(=N)N)NC(=O)CN)C(=O)N[C@@H](C)C(=O)N[C@@H](Cc1ccccc1)C(=O)N[C@@H](Cc1ccc(O)cc1)C(=O)N[C@@H](C)C(=O)N[C@@H](CS)C(=O)N[C@@H](Cc1ccccc1)C(=O)N[C@@H](CS)C(=O)O` [TAT-I24] (H-GRKKRRQRRRPPQCLAFYACFC-OH; N-terminus and C-terminus assumed), the “baculovirus-mediated luciferase expression (in words)” value in assay [1] (HEK293 pretreated for 10 minutes) was “reduced”. In assay [1] (setting [5]), the “IL-8 mRNA levels (cellular gene)” value is listed as “remained unaffected” and the “luciferase mRNA (baculovirus-encoded)” value is “down-regulated”. For the same compound, the “replication of herpes simplex virus” value in the assay on herpes simplex virus is “inhibited”. In addition, the “reduction in luciferase levels, lentivirus” value in assay [2] came out at 75%. Besides, in the assay on vaccinia virus (20 μM), the “inhibition of virus replication, vaccinia virus” value is listed as over 90%. For the same compound, the “reduction of amount of viral DNA in the supernatants” value with vaccinia virus (20 μM, 24 hrs after infection) is listed as over 90%. In addition, the “reduction of number of plaque forming units (PFU) in the supernatants” value with vaccinia virus (20 μM, plaque assay using BSC-40 cells) is over 90%. Also, the “rpo22 mRNA levels (in words)” value in the assay on vaccinia virus (24 hrs after infection, normalized to GAPDH) was “dose-dependently inhibited”. Moreover, in assay [3] (peptide 2 μM, 24 hrs post-transfection, HEK293, relative to DMSO control), the “luciferase % of DMSO con-” value was 1.8%. In assay [3] (peptide transfected with CMV-luciferase plasmid, HEK293, 24 hrs), the “inhibition of luciferase production (in words)” value is listed as “more potent inhibition of luciferase expression”. Besides, the IC50 in assay [3] (read-out: IC50 inhibition of plasmid-encoded luciferase levels, transfected together with the plasmid-DNA) worked out at 60 nM. Besides, the “luciferase, GFP and adenovirus hexon transcript levels” value in assay [4] (20 μM, 72 hrs, normalized to GAPDH) was “inhibition of all three adenovirus-encoded genes”. In assay [4] (96 hrs after infection, crystal violet staining), the “cell detachment of virus-infected HEK293 cells” value is “inhibition of cell detachment”. Further, in assay [4] (HEK293, read-out: IC50 luciferase protein levels, adenovirus), the concentration for half-maximal inhibition (IC50) came to 6 µM. The “adenovirus particles released to supernatants (hexon DNA)” value in assay [4] (real-time PCR of supernatant DNA) was “inhibits formation and release of adenovirus particles to supernatants”.
